Consider 5 compounds from US9403855B2 (priority 2010, dated 2016).

Series [1] concerns the target neuraminidase of A/California/7/2009 (pandemic H1N1) (Influenza A virus, UniProt C3W6G3). Put plainly: biochemical. Details: species or system Influenza virus A/California/7/2009 (pandemic H1N1).
Series [2] concerns the target neuraminidase of A/Udorn/307/1972 (H3N2) (Influenza A virus, UniProt P0DOF6). Nature of the series: biochemical. More on the design: species or system Influenza virus A/Udorn/307/1972 (H3N2).
Series [3] concerns A/Vietnam/1194/2004 RG14 (H5N1). Put plainly: microbe, parasite or virus in culture. The note with it: Influenza A virus, H5N1, read-out: EC50 (anti-influenza activity). It counts as cell-based, Influenza virus A/Vietnam/1194/2004 RG14 (H5N1).
The next series deals with A/WSN/1933 (H1N1). Nature of the series: microbe, parasite or virus in culture. It counts as cell-based, Influenza virus A/WSN/1933 (H1N1). The note with it: Influenza A virus, read-out: EC50 (anti-influenza activity).
The subject of series [4] is A/California/7/2009 (pandemic H1N1). Nature of the series: microbe, parasite or virus in culture. It counts as cell-based, Influenza virus A/California/7/2009 (pandemic H1N1). As to conditions: Influenza A virus, H1N1, read-out: EC50 (anti-influenza activity).
The nature of the next series: in vitro. As to conditions: human.
Another series has as its system A/Udorn/307/1972 (H3N2). Nature of the series: microbe, parasite or virus in culture. Type of series: cell-based, Influenza virus A/Udorn/307/1972 (H3N2). As to conditions: Influenza A virus, H3N2, read-out: EC50 (anti-influenza activity).
Series [5] concerns the target neuraminidase of A/WSN/1933 (H1N1) (Influenza A virus, UniProt P03470). Nature of the series: biochemical. Details: species or system Influenza virus A/WSN/1933 (H1N1).
The subject of series [6] is 274H influenza virus (WSN), immobilized. It counts as binding.
Series [7] has as its system wild type (274H) neuraminidase of A/Hanoi/30408/2005 (H5N1) on 293T cells. It counts as binding.
Series [8] deals with mixed 293T cells expressing 274H and 274Y neuraminidase of A/Hanoi/30408/2005 (H5N1). Type of series: binding.
The conditions of series [9]: in vivo; cited from earlier work.

“And” between values parts separate entries of the source, which are not always exact repeats. Identical values can stand only once. A value given as a limit tells only on which side of the number the result lay.

Sequence of neuraminidase of A/Udorn/307/1972 (H3N2) (P0DOF6 whole entry, looked up): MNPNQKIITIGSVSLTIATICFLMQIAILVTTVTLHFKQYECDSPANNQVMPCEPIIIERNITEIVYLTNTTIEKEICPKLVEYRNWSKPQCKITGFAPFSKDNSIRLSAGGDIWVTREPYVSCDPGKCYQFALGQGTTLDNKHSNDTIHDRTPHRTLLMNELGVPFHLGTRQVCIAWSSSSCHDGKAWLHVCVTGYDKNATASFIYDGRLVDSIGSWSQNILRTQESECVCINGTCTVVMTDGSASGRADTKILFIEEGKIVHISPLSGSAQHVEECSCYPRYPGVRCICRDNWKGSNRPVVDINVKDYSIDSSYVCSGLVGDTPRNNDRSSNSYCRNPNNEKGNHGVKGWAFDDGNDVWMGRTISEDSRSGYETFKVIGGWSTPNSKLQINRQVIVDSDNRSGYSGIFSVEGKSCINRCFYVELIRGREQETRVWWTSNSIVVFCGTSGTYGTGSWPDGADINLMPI
Sequence of neuraminidase of A/WSN/1933 (H1N1) (P03470 whole entry, looked up): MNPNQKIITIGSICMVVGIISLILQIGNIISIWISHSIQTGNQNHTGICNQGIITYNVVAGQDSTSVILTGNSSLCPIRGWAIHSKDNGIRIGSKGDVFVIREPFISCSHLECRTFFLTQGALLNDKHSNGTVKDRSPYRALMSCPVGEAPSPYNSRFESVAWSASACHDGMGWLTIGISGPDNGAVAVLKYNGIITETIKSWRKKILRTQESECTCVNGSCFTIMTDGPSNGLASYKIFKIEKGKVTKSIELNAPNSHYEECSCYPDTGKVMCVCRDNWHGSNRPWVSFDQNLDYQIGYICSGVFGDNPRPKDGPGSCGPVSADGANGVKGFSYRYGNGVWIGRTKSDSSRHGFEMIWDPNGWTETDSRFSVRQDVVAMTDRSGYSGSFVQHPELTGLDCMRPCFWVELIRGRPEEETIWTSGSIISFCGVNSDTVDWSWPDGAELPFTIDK

For `CC(=O)N[C@H]1[C@H]([C@H](O)[C@H](O)CO)OC(P(=O)(O)O)=C[C@@H]1N` [1a, (5-Acetamido-4-amino-6-(1,2,3-hydroxy)propyl-4,5,6-trihydropyran-2-yl) phosphonic acid], the values for the IC50 in series [1], in [2] and in series [5] were 0.9 nM, 6.4 nM and 0.65 nM, respectively. Moreover, the EC50 (usually the concentration needed to bring the measured effect to its halfway point) worked out at 978 nM in series [3], 1.3 nM with A/WSN/1933 (H1N1), 20.3 nM in series [4] and 55 nM in the series with A/Udorn/307/1972 (H3N2). The compound further returned a CC50 in “in vitro” of over 30000 nM.

For the compound `CC(=O)N[C@H]1[C@H]([C@H](O)[C@H](O)CO)OC(P(=O)(O)O)=C[C@@H]1NC(=N)N` [1b, (5-Acetamido-4-guanidino-6-(1,2,3-hydroxy)propyl-4,5,6-trihydropyran-2-yl) phosphonic acid], the values for the IC50 in [1], in series [2] and in [5] were 0.8 nM, 5.2 nM and 1.2 nM, respectively. The EC50 was 1700 ± 500 nM in series [3], 2.4 nM in the series with A/WSN/1933 (H1N1), 26.5 nM in series [4] and 32 ± 23 nM with A/Udorn/307/1972 (H3N2). The CC50 in the series “in vitro” is over 50000 nM.

As to `CCC(CC)O[C@@H]1C=C(C(=O)O)C[C@H](N)[C@H]1NC(C)=O` [Oseltamivir acid, oseltamivir carboxylic acid, reference compound], the EC50 in [3] turned out to be 1250 ± 440 nM; in the series with A/WSN/1933 (H1N1), 12.2 ± 2.3 nM; in [4] it was 76 nM; in the series on A/Udorn/307/1972 (H3N2), 3 ± 1.8 nM. This compound returned a CC50 in the series “in vitro” of over 100000 nM.

With `CC(=O)N[C@H]1[C@H]([C@H](OC(=O)NCc2cn(CCCCCNC(=O)CCCCC3SC[C@@H]4NC(=O)N[C@H]34)nn2)[C@H](O)CO)OC(C(=O)O)=C[C@@H]1NC(=N)N` (stereo partly shown) [ZB], the melting point – broadly, the temperature of the solid-liquid transition – was in the range of 170 to 172 °C. Moreover, the “residual ZB binding in OC competition” value in series [6] is on record as “about 3%”. For the same compound, in series [7], the “percentage of ZB labeled cells” value is 83.95%. Besides, the “percentage of ZB labeled cells” value in series [8] is 84.4% and 84.62% and 86.07% and 83.58%.

With `CC(=O)N[C@H]1[C@H]([C@H](O)[C@H](O)CO)OC(C(=O)O)=C[C@@H]1N=C(N)N` [Zanamivir, reference compound], the EC50 in series [3] was found to be 16400 ± 2980 nM; in the series with A/WSN/1933 (H1N1), 23.5 ± 8.5 nM; in series [4], 267 nM; in the series on A/Udorn/307/1972 (H3N2), 41 ± 6 nM. The CC50 in the series “in vitro” was over 100000 nM. Further, the Bioavailability in series [9] is reported as 2%.
